Assay results: patent publication US8703701B2 (Indiana University Research and Technology Corporation, priority 2009, dated 2014)
Starred links: 1 amine or outer side, 2 acyl side, 3 side chain; linkers in the order of their positions; H or OH if unused. Non-standard residues stand in square brackets, D forms with d. Residues, ends and D or L forms follow the SMILES beside them. Groups on a side chain read outwards from the residue. No end group written: not given here. *: point of attachment. γGlu = O=C(O)[C@H](CCC(=O)[*:2])N[*:1]; Palmitoyl = CCCCCCCCCCCCCCCC(=O)*; Aib = CC(C)(N)C(=O)O

Key:
GLP-1 receptor = biological target: T1, GLP-1 receptor (Homo sapiens, UniProt P43220); experiment: cAMP induction, firefly luciferase reporter assay, GLP-1 receptor; format: cell-based; conditions: for Activity at GLP-1 Receptor % Relative Activity: compared to native GLP-1
T1 construct: expressed in transfected cells; host or cells: HEK293
T1 sequence (P43220 24-463): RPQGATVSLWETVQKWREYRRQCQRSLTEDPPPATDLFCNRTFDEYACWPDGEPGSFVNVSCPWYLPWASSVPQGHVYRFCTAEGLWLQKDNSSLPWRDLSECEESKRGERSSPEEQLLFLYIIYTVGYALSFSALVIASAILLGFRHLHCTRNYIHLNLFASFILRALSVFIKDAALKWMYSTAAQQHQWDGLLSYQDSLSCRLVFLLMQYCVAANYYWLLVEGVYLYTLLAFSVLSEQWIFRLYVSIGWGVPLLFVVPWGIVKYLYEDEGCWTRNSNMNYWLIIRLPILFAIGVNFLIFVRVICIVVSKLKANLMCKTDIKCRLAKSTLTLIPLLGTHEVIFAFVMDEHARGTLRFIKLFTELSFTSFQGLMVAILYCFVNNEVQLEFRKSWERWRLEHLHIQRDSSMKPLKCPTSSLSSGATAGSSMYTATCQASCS
Description: (§1) The ability of each peptide to induce cAMP was measured in a firefly luciferase-based reporter assay.
(§2) At the end of the incubation, 100 μL of LucLite luminescence substrate reagent (Perkin Elmer, Wellesley, Mass.) were added to each well. The plate was shaken briefly, incubated 10 min in the dark and light output was measured on MicroBeta-1450 liquid scintillation counter (Perkin-Elmer, Wellesley, Mass.).

glucagon receptor = biological target: T2, glucagon receptor (Homo sapiens, UniProt P47871); experiment: cAMP induction, firefly luciferase reporter assay, glucagon receptor; format: cell-based; conditions: for Activity at Glucagon Receptor % Relative Activity: compared to native glucagon
T2 construct: expressed in transfected cells; host or cells: HEK293
T2 sequence (P47871 26-477): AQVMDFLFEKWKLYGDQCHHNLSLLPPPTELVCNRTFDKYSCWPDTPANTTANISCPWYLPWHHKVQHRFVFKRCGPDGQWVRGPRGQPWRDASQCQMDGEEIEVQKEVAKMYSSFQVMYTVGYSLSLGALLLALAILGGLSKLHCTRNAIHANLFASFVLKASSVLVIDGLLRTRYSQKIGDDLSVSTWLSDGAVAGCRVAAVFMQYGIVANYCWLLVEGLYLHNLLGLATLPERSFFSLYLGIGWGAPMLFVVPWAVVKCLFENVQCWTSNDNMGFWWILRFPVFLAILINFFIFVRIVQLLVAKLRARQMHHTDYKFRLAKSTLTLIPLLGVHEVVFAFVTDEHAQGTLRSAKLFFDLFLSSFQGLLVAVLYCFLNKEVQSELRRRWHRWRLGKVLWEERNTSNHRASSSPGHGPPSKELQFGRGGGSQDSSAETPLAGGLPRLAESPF
Description: as §1, §2

[1] = EC50 (nM) at GLP-1 Receptor, Table 7B
[2] = Activity at GLP-1 Receptor EC50 (nM), Table 2A

An EC50 (GLP-1 receptor; [1]) of 0.024 nM was found for `CCCCCCCCCCCCCCCC(=O)NCCCC[C@H](NC(=O)[C@H](CC(=O)O)NC(=O)[C@H](CO)NC(=O)[C@@H](NC(=O)[C@H](Cc1ccccc1)NC(=O)[C@@H](NC(=O)CNC(=O)[C@H](CCC(N)=O)NC(=O)C(C)(C)NC(=O)[C@@H](N)Cc1c[nH]cn1)[C@@H](C)O)[C@@H](C)O)C(=O)N[C@@H](CO)C(=O)N[C@@H](CCCCN)C(=O)N[C@@H](Cc1ccc(O)cc1)C(=O)N[C@@H](CC(C)C)C(=O)N[C@@H](CC(=O)O)C(=O)N[C@@H](CCC(=O)O)C(=O)N[C@@H](CCC(=O)O)C(=O)N[C@@H](C)C(=O)N[C@H](C(=O)N[C@@H](CCCNC(=N)N)C(=O)N[C@@H](CC(C)C)C(=O)N[C@@H](Cc1ccccc1)C(=O)N[C@H](C(=O)N[C@@H](CCC(=O)O)C(=O)N[C@@H](Cc1c[nH]c2ccccc12)C(=O)N[C@@H](CC(C)C)C(=O)N[C@@H](CCSC)C(=O)N[C@@H](CC(N)=O)C(=O)N[C@H](C(N)=O)[C@@H](C)O)[C@@H](C)CC)C(C)C` [compound 40] (H-H[Aib]QGTFTSDK(Palmitoyl)SKYLDEEAVRLFIEWLMNT-NH2; N-terminus assumed) in this work.

An EC50 (GLP-1 receptor; [1]) of 0.013 nM was found for `CC[C@H](C)[C@H](NC(=O)[C@H](Cc1ccccc1)NC(=O)[C@H](CC(C)C)NC(=O)[C@H](CCCNC(=N)N)NC(=O)[C@@H](NC(=O)[C@H](C)NC(=O)[C@H](CCC(N)=O)NC(=O)[C@H](CCC(=O)O)NC(=O)[C@H](CC(=O)O)NC(=O)[C@H](CC(C)C)NC(=O)[C@H](Cc1ccc(O)cc1)NC(=O)[C@H](CCCCN)NC(=O)[C@H](CO)NC(=O)[C@H](Cc1ccc(O)cc1)NC(=O)[C@H](CC(=O)O)NC(=O)[C@H](CO)NC(=O)[C@@H](NC(=O)[C@H](Cc1ccccc1)NC(=O)[C@@H](NC(=O)CNC(=O)[C@H](CCC(N)=O)NC(=O)[C@@H](CO)NC(=O)[C@@H](N)Cc1c[nH]cn1)[C@@H](C)O)[C@@H](C)O)C(C)C)C(=O)N[C@@H](CS)C(=O)N[C@@H](Cc1c[nH]c2ccccc12)C(=O)N[C@@H](CC(C)C)C(=O)N[C@@H](CC(C)C)C(=O)N[C@@H](CC(=O)O)C(=O)N[C@H](C(N)=O)[C@@H](C)O` [compound 87] (H-H[dS]QGTFTSDYSKYLDEQAVRLFICWLLDT-NH2; N-terminus assumed) in this work.

In the case of `CSCC[C@H](NC(=O)[C@H](CC(C)C)NC(=O)[C@H](Cc1c[nH]c2ccccc12)NC(=O)[C@H](CCC(N)=O)NC(=O)[C@@H](NC(=O)[C@H](Cc1ccccc1)NC(=O)[C@H](CC(=O)O)NC(=O)[C@H](CCCCN)NC(=O)[C@H](C)NC(=O)[C@H](CCCNC(=N)N)NC(=O)[C@H](CCCNC(=N)N)NC(=O)[C@H](CCC(=O)O)NC(=O)[C@H](CC(=O)O)NC(=O)[C@H](CC(C)C)NC(=O)[C@H](Cc1ccc(O)cc1)NC(=O)[C@H](CCCCN)NC(=O)[C@H](CO)NC(=O)[C@H](Cc1ccc(O)cc1)NC(=O)[C@H](CC(=O)O)NC(=O)[C@H](CO)NC(=O)[C@@H](NC(=O)[C@H](Cc1ccccc1)NC(=O)[C@@H](NC(=O)CNC(=O)[C@H](CCC(N)=O)NC(=O)[C@H](CO)NC(=O)[C@@H](N)Cc1c[nH]cn1)[C@@H](C)O)[C@@H](C)O)C(C)C)C(=O)N[C@@H](CC(N)=O)C(=O)N[C@H](C(N)=O)[C@@H](C)O` [compound 67], the “Activity at GLP-1 Receptor % Relative Activity” value (GLP-1 receptor; Table 2B) is reported as 47% and the “Activity at Glucagon Receptor % Relative Activity” value (glucagon receptor; Table 2B) is reported as 93%.

An EC50 (GLP-1 receptor; [2]) of 0.284 nM and an EC50 (glucagon receptor; Activity at Glucagon Receptor EC50 (nM), Table 2A) of 0.054 nM were found for `CSCC[C@H](NC(=O)[C@H](CC(C)C)NC(=O)[C@H](Cc1c[nH]c2ccccc12)NC(=O)[C@H](CCC(N)=O)NC(=O)[C@@H](NC(=O)[C@H](Cc1ccccc1)NC(=O)[C@H](CCC(=O)O)NC(=O)[C@H](CCCCN)NC(=O)[C@H](C)NC(=O)[C@H](CCCNC(=N)N)NC(=O)[C@H](CCCCN)NC(=O)[C@H](CCC(=O)O)NC(=O)[C@H](CC(=O)O)NC(=O)[C@H](CC(C)C)NC(=O)[C@H](Cc1ccc(O)cc1)NC(=O)[C@H](CCCCN)NC(=O)[C@H](CO)NC(=O)[C@H](Cc1ccc(O)cc1)NC(=O)[C@H](CC(=O)O)NC(=O)[C@H](CO)NC(=O)[C@@H](NC(=O)[C@H](Cc1ccccc1)NC(=O)[C@@H](NC(=O)CNC(=O)[C@H](CCC(N)=O)NC(=O)[C@@H](CO)NC(=O)[C@@H](N)Cc1c[nH]cn1)[C@@H](C)O)[C@@H](C)O)C(C)C)C(=O)N[C@@H](CC(N)=O)C(=O)N[C@H](C(N)=O)[C@@H](C)O` [compound 20] in this work.

For “HSQGTFTSDYSKYLDERRAKEFVQWLMNT-NH2 [compound 68]”, the “Activity at GLP-1 Receptor % Relative Activity” value (GLP-1 receptor; Table 2B) was 44% and the “Activity at Glucagon Receptor % Relative Activity” value (glucagon receptor; Table 2B) was 104%.

With `CCCCCCCCCCCCCCCC(=O)N[C@@H](CCC(=O)NCCCC[C@H](NC(=O)[C@H](CC(=O)O)NC(=O)[C@H](CO)NC(=O)[C@@H](NC(=O)[C@H](Cc1ccccc1)NC(=O)[C@@H](NC(=O)CNC(=O)[C@H](CCC(N)=O)NC(=O)C(C)(C)NC(=O)[C@@H](N)Cc1c[nH]cn1)[C@@H](C)O)[C@@H](C)O)C(=O)N[C@@H](CO)C(=O)N[C@@H](CCCCN)C(=O)N[C@@H](Cc1ccc(O)cc1)C(=O)N[C@@H](CC(C)C)C(=O)N[C@@H](CC(=O)O)C(=O)N[C@@H](CCC(=O)O)C(=O)N[C@@H](CCCNC(=N)N)C(=O)N[C@@H](C)C(=O)N[C@@H](C)C(=O)N[C@@H](CCC(N)=O)C(=O)N[C@@H](CC(=O)O)C(=O)N[C@@H](Cc1ccccc1)C(=O)N[C@H](C(=O)N[C@@H](CS)C(=O)N[C@@H](Cc1c[nH]c2ccccc12)C(=O)N[C@@H](CC(C)C)C(=O)N[C@@H](CC(C)C)C(=O)N[C@@H](CC(=O)O)C(=O)N[C@H](C(N)=O)[C@@H](C)O)C(C)C)C(=O)O` [compound 58] the EC50 (GLP-1 receptor; Activity at GLP-1 Receptor EC50 [nM], Table 6) was 0.068 nM, the “Activity at GLP-1 Receptor % Relative Activity” value (GLP-1 receptor; Table 6) was 125% and the “Activity at Glucagon Receptor % Relative Activity” value (glucagon receptor; Table 6) was 80%.

An EC50 (GLP-1 receptor; [1]) of 0.019 nM was found for `CCCCCCCCCCCCCCCC(=O)N[C@@H](CCC(=O)NCCCC[C@H](NC(=O)[C@H](CC(=O)O)NC(=O)[C@H](CO)NC(=O)[C@@H](NC(=O)[C@H](Cc1ccccc1)NC(=O)[C@@H](NC(=O)CNC(=O)[C@H](CCC(N)=O)NC(=O)C(C)(C)NC(=O)[C@@H](N)Cc1c[nH]cn1)[C@@H](C)O)[C@@H](C)O)C(=O)N[C@@H](CO)C(=O)N[C@@H](CCCCN)C(=O)N[C@@H](Cc1ccc(O)cc1)C(=O)N[C@@H](CC(C)C)C(=O)N[C@@H](CC(=O)O)C(=O)N[C@@H](CCC(=O)O)C(=O)N[C@@H](CCC(=O)O)C(=O)N[C@@H](C)C(=O)N[C@H](C(=O)N[C@@H](CCCNC(=N)N)C(=O)N[C@@H](CC(C)C)C(=O)N[C@@H](Cc1ccccc1)C(=O)N[C@H](C(=O)N[C@@H](CCC(=O)O)C(=O)N[C@@H](Cc1c[nH]c2ccccc12)C(=O)N[C@@H](CC(C)C)C(=O)N[C@@H](CCSC)C(=O)N[C@@H](CC(N)=O)C(=O)N[C@H](C(N)=O)[C@@H](C)O)[C@@H](C)CC)C(C)C)C(=O)O` [compound 38] (H-H[Aib]QGTFTSDK([γGlu-Palmitoyl])SKYLDEEAVRLFIEWLMNT-NH2; N-terminus assumed) in this work.

An EC50 (GLP-1 receptor; [2]) of 0.048 nM was found for `CSCC[C@H](NC(=O)[C@H](CC(C)C)NC(=O)[C@H](Cc1c[nH]c2ccccc12)NC(=O)[C@H](CCC(N)=O)NC(=O)[C@@H](NC(=O)[C@H](Cc1ccccc1)NC(=O)[C@H](CCC(=O)O)NC(=O)[C@H](CCCCN)NC(=O)[C@H](C)NC(=O)[C@H](CCCNC(=N)N)NC(=O)[C@H](CCCCN)NC(=O)C(C)(C)NC(=O)[C@H](CC(=O)O)NC(=O)[C@H](CC(C)C)NC(=O)[C@H](Cc1ccc(O)cc1)NC(=O)[C@H](CCCCN)NC(=O)[C@H](CO)NC(=O)[C@H](Cc1ccc(O)cc1)NC(=O)[C@H](CC(=O)O)NC(=O)[C@H](CO)NC(=O)[C@@H](NC(=O)[C@H](Cc1ccccc1)NC(=O)[C@@H](NC(=O)CNC(=O)[C@H](CCC(N)=O)NC(=O)[C@@H](CO)NC(=O)[C@@H](N)Cc1c[nH]cn1)[C@@H](C)O)[C@@H](C)O)C(C)C)C(=O)N[C@@H](CC(N)=O)C(=O)N[C@H](C(N)=O)[C@@H](C)O` [compound 21] in this work.

For `CCCCCCCCCCCCCCCC(=O)N[C@@H](CCC(=O)NCCCC[C@H](NC(=O)[C@H](CC(=O)O)NC(=O)[C@H](CO)NC(=O)[C@@H](NC(=O)[C@H](Cc1ccccc1)NC(=O)[C@@H](NC(=O)CNC(=O)[C@H](CCC(N)=O)NC(=O)[C@H](CO)NC(=O)[C@H](Cc1c[nH]cn1)NC(C)=O)[C@@H](C)O)[C@@H](C)O)C(=O)N[C@@H](CO)C(=O)N[C@@H](CCCCN)C(=O)N[C@@H](Cc1ccc(O)cc1)C(=O)N[C@@H](CC(C)C)C(=O)N[C@@H](CC(=O)O)C(=O)N[C@@H](CCC(=O)O)C(=O)N[C@@H](CCC(N)=O)C(=O)N[C@@H](C)C(=O)N[C@@H](C)C(=O)N[C@@H](CCCCN)C(=O)N[C@@H](CCC(=O)O)C(=O)N[C@@H](Cc1ccccc1)C(=O)N[C@H](C(=O)N[C@@H](CS)C(=O)N[C@@H](Cc1c[nH]c2ccccc12)C(=O)N[C@@H](CC(C)C)C(=O)N[C@@H](CC(C)C)C(=O)N[C@@H](CC(=O)O)C(=O)N[C@H](C(N)=O)[C@@H](C)O)[C@@H](C)CC)C(=O)O` [compound 57] (Ac-HSQGTFTSDK([γGlu-Palmitoyl])SKYLDEQAAKEFICWLLDT-NH2), the “Activity at Glucagon Receptor % Relative Activity” value (glucagon receptor; Table 5) was 1%.

An EC50 (GLP-1 receptor; GLP-1 Receptor EC50 (nM), Table 1, HEK293 cells co-transfected with receptor and CRE-luciferase) of 0.13 nM was found for `CSCC[C@H](NC(=O)[C@H](CC(C)C)NC(=O)[C@H](Cc1c[nH]c2ccccc12)NC(=O)[C@H](CCC(N)=O)NC(=O)[C@@H](NC(=O)[C@H](Cc1ccccc1)NC(=O)[C@H](CCC(=O)O)NC(=O)[C@H](CCC(N)=O)NC(=O)[C@H](C)NC(=O)[C@H](CCCNC(=N)N)NC(=O)[C@H](CCCCN)NC(=O)[C@H](CO)NC(=O)[C@H](CC(=O)O)NC(=O)[C@H](CC(C)C)NC(=O)[C@H](Cc1ccc(O)cc1)NC(=O)[C@H](CCCCN)NC(=O)[C@H](CO)NC(=O)[C@H](Cc1ccc(O)cc1)NC(=O)[C@H](CC(=O)O)NC(=O)[C@H](CO)NC(=O)[C@@H](NC(=O)[C@H](Cc1ccccc1)NC(=O)[C@@H](NC(=O)CNC(=O)[C@H](CCC(N)=O)NC(=O)[C@H](CO)NC(=O)[C@@H](N)Cc1c[nH]cn1)[C@@H](C)O)[C@@H](C)O)C(C)C)C(=O)N[C@@H](CC(N)=O)C(=O)N[C@H](C(N)=O)[C@@H](C)O` [Peptide 1] in this work.
